{
  "source": "ChEMBL document CHEMBL1165930",
  "about": "“The anticancer activity of 3- and 10-bromofascaplysins is mediated by caspase-8, -9, -3-dependent apoptosis” (Bioorg Med Chem, 2010)",
  "key": {"[1]": {"test_system": "JB6 Cl41", "test": "Effect on EGF-stimulated proliferation of p38-expressing mouse JB6 Cl41 cells at 125 nM after 22 hrs by MTS assay", "type": "functional, cell-based"}, "[2]": {"test_system": "HL-60", "test": "Induction of apoptosis in human HL60 cells assessed as total apoptotic cells at 50 to 100 nM after 24 hrs by FITC-conjugated annexin V and propidium iodide staining-based flow cytometry", "type": "functional"}, "[3]": {"test_system": "HL-60", "test": "Induction of apoptosis in human HL60 cells assessed as total apoptotic cells at 1000 nM after 24 hrs by FITC-conjugated annexin V and propidium iodide staining-based flow cytometry", "type": "functional"}, "[4]": {"test_system": "HL-60", "test": "Induction of apoptosis in human HL60 cells assessed as early apoptotic cells at 50 nM after 24 hrs by FITC-conjugated annexin V and propidium iodide staining-based flow cytometry", "type": "functional"}, "[5]": {"test_system": "JB6 Cl41", "test": "Effect on EGF-stimulated proliferation of mouse JB6 Cl41 cells at 125 nM after 22 hrs by MTS assay", "type": "functional, cell-based"}, "[6]": {"target": "Transcription factor Jun (Mus musculus) (UniProt P05627)", "sequence (P05627 whole entry)": "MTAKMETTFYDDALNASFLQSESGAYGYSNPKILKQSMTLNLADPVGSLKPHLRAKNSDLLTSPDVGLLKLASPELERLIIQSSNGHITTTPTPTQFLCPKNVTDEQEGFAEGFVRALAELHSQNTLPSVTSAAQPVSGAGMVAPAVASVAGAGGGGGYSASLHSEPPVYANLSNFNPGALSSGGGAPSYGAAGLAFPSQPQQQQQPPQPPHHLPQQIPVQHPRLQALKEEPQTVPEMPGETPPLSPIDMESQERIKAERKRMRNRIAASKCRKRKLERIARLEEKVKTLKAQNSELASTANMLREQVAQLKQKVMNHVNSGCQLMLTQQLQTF", "test": "Induction of AP1-mediated transcriptional activity in mouse JB6 Cl41 cells at 125 to 250 nM after 24 hrs by luciferase reporter gene assay relative to control", "type": "cell-based"}, "[7]": {"test_system": "HL-60", "test": "Induction of apoptosis in human HL60 cells assessed as decrease in procaspase-8 level at 250 nM after 24 hrs by Western blot analysis", "type": "functional, cell-based"}, "[8]": {"test": "Selectivity ratio of INCC50 for mouse JB6 Cl41 cells to IC50 for mouse JB6 Cl41 cells", "type": "functional"}, "[9]": {"test_system": "SK-MEL-28", "test": "Anticancer activity in human SK-MEL-28 cells assessed as inhibition of colony formation by anchorage-independent soft agar assay", "type": "functional"}, "[10]": {"test_system": "HL-60", "test": "Induction of apoptosis in human HL60 cells assessed as decrease in procaspase-8 level at 500 nM after 24 hrs by Western blot analysis", "type": "functional, cell-based"}, "[11]": {"test_system": "HL-60", "test": "Selectivity ratio of INCC50 for human HL60 cells to IC50 for human HL60 cells", "type": "functional"}, "[12]": {"target": "Transcription factor Jun (Mus musculus) (UniProt P05627)", "test": "Induction of AP1-mediated transcriptional activity in mouse JB6 Cl41 cells at 15 to 500 nM by luciferase reporter gene assay", "type": "cell-based"}, "[13]": {"test": "Effect on EGF-stimulated proliferation of p38-expressing mouse JB6 Cl41 cells assessed as cell viability at 250 nM after 22 hrs by MTS assay", "type": "functional", "details": "JB6 Cl41, 22 h, read-out: Activity"}, "[14]": {"test_system": "HL-60", "test": "Induction of apoptosis in human HL60 cells assessed as change in mitochondrial permeability at 500 nM after 24 hrs by DiOC6 staining-based flow cytometry (RVb = 90.3%)", "type": "functional"}, "[15]": {"test_system": "HL-60", "test": "Anticancer activity in human HL60 cells assessed as inhibition of colony formation by anchorage-independent soft agar assay", "type": "functional"}, "[16]": {"test_system": "HL-60", "test": "Induction of apoptosis in human HL60 cells assessed as decrease in Bid protein level at 500 nM after 24 hrs by Western blot analysis", "type": "functional, cell-based"}, "[17]": {"test_system": "THP-1", "test": "Induction of apoptosis in human THP1 cells assessed as early apoptotic cells at 2000 nM after 24 hrs by FITC-conjugated annexin V and propidium iodide staining-based flow cytometry", "type": "functional"}, "[18]": {"test_system": "MDA-MB-231", "test": "Cytotoxicity against human MDA-MB-231 cells after 22 hrs by MTS assay", "type": "functional, cell-based", "details": "MDA-MB-231, 22 h"}, "[19]": {"test_system": "HL-60", "test": "Induction of apoptosis in human HL60 cells assessed as decrease in procaspase-3 level at 250 nM after 24 hrs by Western blot analysis", "type": "functional, cell-based"}, "[20]": {"test_system": "THP-1", "test": "Induction of apoptosis in human THP1 cells assessed as non-viable necrotic cells at 2000 nM after 24 hrs by FITC-conjugated annexin V and propidium iodide staining-based flow cytometry", "type": "functional"}, "[21]": {"test": "Cytotoxicity against human SNUC4 cells after 22 hrs by MTS assay", "type": "functional, cell-based", "details": "SNU-C4, 22 h"}, "[22]": {"test_system": "THP-1", "test": "Induction of apoptosis in human THP1 cells assessed as late apoptotic cells at 1000 nM after 24 hrs by FITC-conjugated annexin V and propidium iodide staining-based flow cytometry", "type": "functional"}, "[23]": {"test_system": "THP-1", "test": "Induction of apoptosis in human THP1 cells assessed as late apoptotic cells at 2000 nM after 24 hrs by FITC-conjugated annexin V and propidium iodide staining-based flow cytometry", "type": "functional"}, "[24]": {"test_system": "HL-60", "test": "Induction of apoptosis in human HL60 cells assessed as decrease in procaspase-9 level at 250 nM after 24 hrs by Western blot analysis", "type": "functional, cell-based"}, "[25]": {"test": "Effect on proliferation of p53-expressing mouse JB6 Cl41 cells assessed as cell viability at 375 to 500 nM after 6 hrs", "type": "functional"}, "[26]": {"test_system": "THP-1", "test": "Induction of apoptosis in human THP1 cells assessed as viable cells at 500 nM after 24 hrs by FITC-conjugated annexin V and propidium iodide staining-based flow cytometry", "type": "functional", "details": "THP-1, 24 h, read-out: Activity"}, "[27]": {"test_system": "HL-60", "test": "Induction of apoptosis in human HL60 cells assessed as decrease in procaspase-3 level at 500 nM after 24 hrs by Western blot analysis", "type": "functional, cell-based"}, "[28]": {"test_system": "THP-1", "test": "Induction of apoptosis in human THP1 cells assessed as viable cells at 2000 nM after 24 hrs by FITC-conjugated annexin V and propidium iodide staining-based flow cytometry", "type": "functional", "details": "THP-1, 24 h, read-out: Activity"}, "[29]": {"target": "Cellular tumor antigen p53 (Mus musculus) (UniProt P02340)", "sequence (P02340 whole entry)": "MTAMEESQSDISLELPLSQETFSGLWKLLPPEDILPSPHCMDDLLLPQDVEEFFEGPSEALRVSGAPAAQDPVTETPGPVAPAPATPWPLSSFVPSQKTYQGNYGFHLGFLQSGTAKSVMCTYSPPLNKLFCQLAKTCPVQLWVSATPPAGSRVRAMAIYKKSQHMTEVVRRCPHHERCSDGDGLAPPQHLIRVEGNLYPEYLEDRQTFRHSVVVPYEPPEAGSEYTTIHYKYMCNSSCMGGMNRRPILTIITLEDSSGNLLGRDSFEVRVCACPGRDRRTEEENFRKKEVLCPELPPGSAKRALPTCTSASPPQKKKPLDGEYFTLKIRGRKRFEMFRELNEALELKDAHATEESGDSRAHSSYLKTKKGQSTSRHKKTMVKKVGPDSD", "test": "Inhibition of p53-mediated transcriptional activity in mouse JB6 Cl41 cells at 375 to 500 nM after 6 hrs by luciferase reporter gene assay relative to control", "type": "cell-based"}, "[30]": {"test": "Effect on EGF-stimulated proliferation of JNK1-expressing mouse JB6 Cl41 cells assessed as cell death at 250 nM after 22 hrs by MTS assay", "type": "functional"}, "[31]": {"test_system": "SK-MEL-28", "test": "Cytotoxicity against human SK-MEL-28 cells after 22 hrs by MTS assay", "type": "functional, cell-based", "details": "SK-MEL-28, 22 h"}, "[32]": {"test_system": "THP-1", "test": "Cytotoxicity against human THP1 cells after 22 hrs by MTS assay", "type": "functional, cell-based", "details": "THP-1, 22 h"}, "[33]": {"test_system": "HL-60", "test": "Induction of apoptosis in human HL60 cells assessed as early apoptotic cells at 500 to 1000 nM after 24 hrs by FITC-conjugated annexin V and propidium iodide staining-based flow cytometry", "type": "functional"}},
  "note": "Activity calls are given as the source filed them. The calls are words filed in the database; no cut-off is given here.",
  "data": [
    {"smiles": "O=C1c2ccc(Br)cc2-[n+]2ccc3c([nH]c4ccccc43)c21.[Cl-]", "values": [
      {"measurement": "Activity", "setting": "[1]", "value": "inactive"},
      {"measurement": "Activity", "setting": "[2]", "value": 20, "unit": "%"},
      {"measurement": "Activity", "setting": "[3]", "value": 90, "unit": "%"},
      {"measurement": "Activity", "setting": "[4]", "value": 5, "unit": "%"},
      {"measurement": "Activity", "setting": "[5]", "value": "inactive"},
      {"measurement": "fold change (FC)", "setting": "[6]", "value": 1.5},
      {"measurement": "inhibition", "setting": "[7]", "value": "Active"},
      {"measurement": "Selectivity ratio", "setting": "[8]", "value": 2.7},
      {"measurement": "INCC50", "setting": "[9]", "value": 162.9, "unit": "nM"},
      {"measurement": "inhibition", "setting": "[10]", "value": "Active"},
      {"measurement": "Selectivity ratio", "setting": "[11]", "value": 5.3},
      {"measurement": "Activity", "setting": "[12]", "value": "tde"},
      {"measurement": "viability at 0.25 µM", "setting": "[13]", "value": 40, "unit": "%"},
      {"measurement": "Activity", "setting": "[14]", "value": 30.6, "unit": "%"},
      {"measurement": "INCC50", "setting": "[15]", "value": 103.5, "unit": "nM"},
      {"measurement": "inhibition", "setting": "[16]", "value": "Active"},
      {"measurement": "Activity", "setting": "[17]", "value": 25.8, "unit": "%"},
      {"measurement": "IC50", "setting": "[18]", "value": 575, "unit": "nM"},
      {"measurement": "inhibition", "setting": "[19]", "value": "Active"},
      {"measurement": "Activity", "setting": "[20]", "value": 23.5, "unit": "%"},
      {"measurement": "IC50", "setting": "[21]", "value": 238, "unit": "nM"},
      {"measurement": "Activity", "setting": "[22]", "value": 23.2, "unit": "%"},
      {"measurement": "Activity", "setting": "[23]", "value": 25.5, "unit": "%"},
      {"measurement": "inhibition", "setting": "[24]", "value": "Active"},
      {"measurement": "Activity", "setting": "[25]", "value": 50, "unit": "%"},
      {"measurement": "viability at 0.5 µM", "setting": "[26]", "value": 68.2, "unit": "%"},
      {"measurement": "inhibition", "setting": "[27]", "value": "Active"},
      {"measurement": "viability at 2 µM", "setting": "[28]", "value": 25.8, "unit": "%"},
      {"measurement": "inhibition", "setting": "[29]", "value": 30, "unit": "%"},
      {"measurement": "Activity", "setting": "[30]", "value": 100, "unit": "%"},
      {"measurement": "IC50", "setting": "[31]", "value": 785, "unit": "nM"},
      {"measurement": "IC50", "setting": "[32]", "value": 521, "unit": "nM"},
      {"measurement": "Activity", "setting": "[33]", "value": 20, "unit": "%"}
    ]}
  ]
}
